Experimental data as given in patent US20150266864A1, “HETEROAROMATIC COMPOUNDS, METHOD FOR PREPARING THE COMPOUNDS, PHARMACEUTICAL COMPOSITIONS, USES AND METHOD FOR TREATING ACUTE AND CHRONIC PAIN” (CRISTÁLIA PRODUTOS QUÍMICOS FARMACÊUTICOS LTDA, priority 2012, published 2015).
Structures can show the parent of a compound that is named as a salt.

Key:
[1] = system: rats subjected to sciatic nerve CCI; assay: Chronic constrictive injury (CCI) of the sciatic nerve, thermal hyperalgesia, paw withdrawal test; type: in vivo, rat
Description: The chronic constrictive injury (CCI) was induced by sciatic nerve ligation according to the method described by Bennett and Xie [Bennett. G. J.; Xie, Y. K. Pain […], 33: 87-107]. Male Wistar rats, weighing 180-240 g, were anesthetized with a mixture of ketamine and xylazine (60 mg/kg and 5 mg/kg, respectively), intraperitoneally. Through an incision of 0.5 cm (parallel and spaced about 10 mm from the left femur) the sciatic nerve was identified. With a thin glass rod, a small segment of sciatic nerve was exposed and four loosely ligatures were placed around the sciatic nerve spaced 1 mm each other using a 3-0 silk suture thread. After the procedure, the skin was sutured and a topical antiseptic was applied.
To assess animal behavior in response to hyperalgesic phenomenon resulting from sciatic nerve chronic constrictive injury, the model described by Hargreaves and Dubner was used [Hargreaves K., Dubner R., Brown F., Flores C., Joris J. Pain 1988, 32 (1): 77-88]. In this regard, paw withdrawal in response to a painful phenomenon was performed. This is a nociceptive test which involves a peripheral short thermal stimulus induced by the radiant heat of an incandescent lamp bulb. […] Radiant heat has an advantage over the other modes of thermal stimulation in that it produces no tactile stimulus. [Le Bars D., Gozariu M., Cadden S. W. Pharmacology Reviews, 2001, 53 (4), 597-652]. In this assay, a plantar test analgesimeter (ITC Life Science Inc, USA) was used.
Animals were placed in transparent acrylic boxes with tempered glass pane floor for 40 minutes to acclimate. After this period, the radiant heat was applied to the footpads of animals's hindpaws until they make the movement of paw withdrawal. The paw withdrawal latency was defined as the time recorded from the beginning of the radiant heat stimulus and the paw withdrawal. For each paw, three latency records were made, and the average value was used to define the paw withdrawal time control The maximum time that each animal was exposed to the radiant heat source (cut-off) was defined as three times the paw withdrawal time control, to avoid tissue injuries in animals's paws.
The day before surgery, rats, defined as “control before surgery”, were placed in acrylic boxes to the paw withdrawal test. On the 7th day after the surgery (CCI), the paw withdrawal test was again performed in order to verify neuropathic pain has been effectively developed in the left paw—defined as “post-surgery control.”
The paw withdrawal test was assessed during the days 1, 3, and 7 of the treatment (with amitriptyline hydrochloride or the compounds of examples of the instant invention) and on days 1, 3, and 7 after treatment interruption.
(§1) Differences were considered significant when p<0.05.

[2] = system: Swiss-type male mice; assay: RotaRod performance test, motor coordination
Description: The assessment of motor coordination in mice, by the rotarod performance test, was carried out to detect any possible sedative or muscle relaxant effect caused by the compounds of the present invention, previously tested in acute and neuropathic pain models. This test was carried out according to the method of described by Dunham & Miya and animal motor coordination was evaluated using RotaRod apparatus [Dunham M. S. & Miya. R. T. (1957). J. Amer. Pharmac. Assoc. Sci. Edit. 1957, 46, 208-209].
The RotaRod apparatus (Model 412 EFF, Insight Equipements, Brazil) is a device that measures motor coordination and thus evaluates balance alterations in mice. The apparatus consists of an acrylic box splited into four compartments with a rotational cylinder among them. The cylinder rotates at constant speed driven by a motor and regulated to the constant speed mode of 5-37 revolutions per minute (rpm). In this study the speed was set up to 9 rpm.
To remain on the rotational cylinder, the animal needs to move around, so that the motor coordination can be quantified. The four compartments have drop detection system, through the impact, a microprocessor circuit, for timing the permanence of the animal at the compartment, and for counting the number of falls.
The day before the test, Swiss-type male mice (19-25 g) were placed on the rotational cylinder, set up to the constant speed mode of 9 rpm for adaptation and learning. A group of 10 mice were used for each tested compound, and the total period spent on the rotational cylinder (in seconds) was recorded for a period of 180 seconds (cut off time) and it was accept a maximum of three falls for each animal. Motor coordination was assessed at times 0 (before treatment), 15, 30, 60 and 120 minutes after compounds administration at a dose of 32.25 μmol/kg.
All compounds were administered intraperitoneally (ip).
The Student's t-test was also used to compare means between two experimental groups. Differences were considered significant when p<0.05.

[3] = system: rats subjected to SNL; assay: Spinal nerve ligation (SNL) L5 model, thermal hyperalgesia; type: in vivo, rat
Description: (§2) This experimental model was proposed by Kim and Chung [Kim, S. H.; Chung, J. M. Pain 1992, 50: 355-363] and consists of ligation of spinal nerves. Male Wistar rats, 180-220 g, were anesthetized with a mixture of ketamine and xylazine (60 mg/kg and 5 mg/kg, respectively) intraperitoneally. After the dorsal region asepsy, an incision was made between L5 and S1. The L6 transverse process was removed for locating the nerves L4 and L5, which were carefully isolated, and tight ligation of the L5 nerve with 6.0 silk thread was made, interrupting flow of the axon of the nerve. After this procedure, para-spinal muscles and skin were sutured, and then a topical antiseptic was applied. False operated animals (sham) were subjected to the same procedure, however the spinal nerve was not ligated.
This method aims to evaluate the animal behavior in response to hyperalgesic phenomenon resulting from the injury induced by the ligament of spinal nerve (L5). In this regard, paw withdrawal in response to thermal stimulus was used, and the thermal stimulus was induced by the radiant heat of an incandescent lamp bulb. The paw withdrawal test was performed as described for the assessment of thermal hyperalgesia in the sciatic nerve chronic constrictive injury model.
as §1
(§3) The treatment started on the 7th day after surgery. Compounds were diluted in water or DMSO and administered through intraperitoneal route on daily basis, during 7 days, at a dose of […]. The effectiveness of tested compounds was assessed on days 1, 3, and 7 days after treatment, always before the next administration of the compound. Latencies were also assessed on days 1, 3, and 7 after treatment interruption.

[4] = system: rats subjected to SNL; assay: Spinal nerve ligation (SNL) L5 model, mechanical allodynia (digital Von Frey); type: in vivo, rat; details: after 7 days of treatment, 32.25 μmol/kg ip
Description: as §2
To evaluate the development of mechanical allodynia, digital analgesimeter (Model EFF301; Insight Equipments), digitalized version coupled to a pointed filament (Von Frey model variant) was used. This test aims to assess changes in tactile sensitivity in response to a mechanical stimulus as a result of a neural damage. The device consisted of a hand-held force transducer fitted with a sensor tip, through which a pressure with increasing strength is applied against the footpad of the animals hindpaw to assess the threshold of paw withdrawal, that is, the digital analgesimeter records the maximal strength, in grams (g), in which the animal withstands until the paw withdrawal reflex.
Animals were placed in individual acrylic boxes and let to acclimate for 30 min before the beginning of the test. After this period, the thresholds of hindpaw withdrawal were determinded. For each hindpaw, five records of the withdrawal thresholds were made, and the average for each hindpaw was defined as the paw withdrawal threshold control.
as §3, §1

[5] = first day of treatment, 32.25 μmol/kg ip
[6] = after 7 days of 32.25 μmol/kg ip
[7] = male, Swiss, mouse, in vivo, 30 min
[8] = male, Swiss, mouse, in vivo, 60 min
[9] = male, Swiss, mouse, in vivo, 120 min

CCN1CCN(CCc2c[nH]nc2-c2ccc(F)cc2)CC1.Cl.Cl.Cl.O.O.O (hydrate or solvate) [C12, 1-ethyl-4-{2-[3-(4-fluorophenyl)-1H-pyrazol-4-yl]ethyl}piperazine trihydrochloride trihydrate]
melting point: 226 to 237 °C (dec.)

CC(=O)O.Fc1ccc(-c2ncncc2CCN2CCCCC2)cc1 [C6, 1-{2-[4-(4-fluorophenyl)pyrimidin-5-yl]ethyl}piperidinium acetate with 0.8 water molecules]
antinociceptive effect, paw withdrawal latency vs post-surgery control [1, 5]: antinociceptive effects in the first day of treatment

Fc1ccc(-c2n[nH]cc2CCN2CCCCC2)cc1 [C1, 1-{2-[3-(4-fluorophenyl)-1H-pyrazol-4-yl]ethyl}piperidine]
melting point: 145 to 146 °C

CC(=O)O.OC1(c2ccc(Cl)cc2)CCN(CCc2cncnc2-c2ccc(F)cc2)CC1 [C16, 4-(4-chlorophenyl)-4-hydroxy-1-{2-[4-(4-fluorophenyl)pyrimidin-5-yl]ethyl}piperidinium acetate]
antinociceptive effect, paw withdrawal latency vs post-surgery control [1, 5]: antinociceptive effects in the first day of treatment
latency increase, statistical significance ([1]; first day of treatment, 32.25 μmol/kg ip, p<0.05 or p<0.005): the latency increase was statistically significant
animal residence time on the rotational cylinder compared to controls ([2]; 15 minutes after administration, 32.25 μmol/kg): equal to the time observed for the negative control, and significantly higher than the time observed for the control amitriptyline hydrochloride
Mice residence time on the rotational cylinder ([2]; T 15 min after ip administration, 32.25 μmol/kg, 9 rpm, cut off 180 s, mean ± SEM): 178.6 s
Mice residence time on the rotational cylinder ([2]; T 30 min after ip administration, 32.25 μmol/kg (diazepam 2 mg/kg), 9 rpm, cut off 180 s, mean ± SEM): 178.8 s
Mice residence time on the rotational cylinder ([2]; T 60 min after ip administration, 32.25 μmol/kg (diazepam 2 mg/kg), 9 rpm, cut off 180 s, mean ± SEM): 150.8 s
Mice residence time on the rotational cylinder ([2]; T 120 min after ip administration, 32.25 μmol/kg (diazepam 2 mg/kg), 9 rpm, cut off 180 s, mean ± SEM): 126.3 s

CCOC(=O)C1(c2ccccc2)CCN(CCc2c[nH]nc2-c2ccc(F)cc2)CC1 [C18, Ethyl 1-{2-[3-(4-fluorophenyl)-1H-pyrazol-4-yl]ethyl}-4-phenylpiperidine-4-carboxylate]
antinociceptive effect, paw withdrawal latency vs post-surgery control [1, 5]: antinociceptive effects in the first day of treatment
melting point: 138 to 139.5 °C

CN(C)CCC=C1c2ccccc2CCc2ccccc21 [amitriptyline hydrochloride, reference compound]
antinociceptive effect after treatment interruption [1, 6]: the antinociceptive effect was observed only after the first day
paw withdrawal latency ([1]; day 7 of treatment, 32.25 μmol/kg ip daily, p<0.005): significantly increased
effect on thermal hyperalgesia after treatment interruption [3, 6]: the analgesic effect is not maintained
paw withdrawal latency, thermal hyperalgesia ([3]; after 7 days of treatment, 32.25 μmol/kg ip): significantly increased
paw withdrawal threshold, mechanical allodynia [4]: no significant threshold increase
Mice residence time on the rotational cylinder [2, 7]: 151.0 s
Mice residence time on the rotational cylinder [2, 8]: 175.8 s
Mice residence time on the rotational cylinder [2, 9]: 161.8 s

Cl.Fc1ccc(-c2nocc2CCN2CCCCC2)cc1 [C5, 1-{2-[3-(4-fluorophenyl)-1,2-oxazol-4-yl]ethyl}piperidine hydrochloride]
antinociceptive effect, paw withdrawal latency vs post-surgery control [1, 5]: antinociceptive effects in the first day of treatment
Mice residence time on the rotational cylinder [2, 7]: 178.6 s
Mice residence time on the rotational cylinder [2, 8]: 173.4 s
Mice residence time on the rotational cylinder [2, 9]: 179.2 s
Mice residence time on the rotational cylinder ([2]; male, Swiss, mouse, in vivo, ip, 15 min): 180.0 s

Cl.Cl.Fc1ccc(-c2n[nH]cc2CCN2CCCCC2)cc1.O (hydrate or solvate) [C3, 1-{2-[3-(4-fluorophenyl)-1H-pyrazol-4-yl]ethyl}piperidine dihydrochloride monohydrate]
melting point: 277 to 279 °C

Cl.Cl.Fc1ccc(-c2n[nH]cc2CCN2CCOCC2)cc1.O (hydrate or solvate) [C9, 4-{2-[3-(4-fluorophenyl)-1H-pyrazol-4-yl]ethyl}morpholine dihydrochloride monohydrate]
melting point: 113 to 126 °C (dec.)
